The values that follow come from patent EP0245209A1, “Milbemycin derivatives, their preparation and their use as pesticides” (CIBA-GEIGY AG, priority 1986, dated 1987).

What all share (format): in vivo
In series [1] the test system is Dermanyssus gallinae. Put plainly: Miticidal action against Dermanyssus gallinae (contact test in glass vessel, mortality). The settings on record: geringere Wirkstoffkonzentrationen (below 100 ppm); observed three days; 4320 min. The procedure:
Beispiel B.1: Milbizide Wirkung gegen Dermanyssus gallinae
2 bis 3 ml einer Testlösung (250, 100 und 10 ppm Aktivsubstanz) werden in einen nach oben offenen Glasbehälter gegeben und ca. 200 Milben in unterschiedlichen Entwicklungsstadien in diesen Behälter eingesetzt. Der Glasbehälter wird mit einem Wattebausch verschlossen und 10 Minuten gleichmässig, bis zur vollständigen [benetzung der Milben geschüttelt. Danach wird der Behälter umgekehrt hingestellt, bis die überschüssige Testlösung von der Watte aufgesogen ist. Der Behälter wird erneut gekehrt und die behandelten Zecken zur Evaluierung der Wirksamkeit der Testsubstanzen drei Tage unter Laborbedingungen beobachtet, wobei die Mortalität als Massstab für Wirksamkeit herangezogen wird.

The test system of series [2] is Aphis craccivora. Nature of the series: Contact action on Aphis craccivora (sprayed pea seedlings). Particulars: niedrigere Konzentrationen (below 25 ppm); after 3 days. The text has this: Beispiel B.9: Kontaktwirkung auf Aphis craccivora
Erbsenkeimlinge, die mit sämtlichen Entwicklungsstadien der Laus infiziert sind, werden mit einer aus einem Emulsionskonzentrat hergestellten Wirkstofflösung besprüht, die wahlweise 50 ppm, 25 ppm oder 12,5 ppm Wirkstoff enthält. Nach 3 Tagen wird auf mehr als 80 % tote bzw. abgefallene Blattläuse ausgewertet. Nur bei dieser Wirkungshöhe wird ein Präparat als wirksam eingestuft.

Series [3] deals with LI-Larven von Lucilia sericata. Nature of the series: Action against L1 larvae of Lucilia sericata (larval culture medium, mortality). Particulars: reduced concentration of 100 ppm, after 4 days; for mortality at 100 ppm: Lucilia sericata, 96 h, read-out: Wirkung (Mortalitätsrate). The procedure:
Beispiel B.2: Wirkung gegen LI-Larven von Lucilia sericata
(§1) 1 ml einer wässrigen Suspension der zu prüfenden Aktivsubstanz werden so mit 3 ml eines speziellen Larvenzuchtmediums bei ca. 50°C vermischt, dass ein Homogenisat von wahlweise 250 ppm oder 100 ppm Wirkstoffgehalt entsteht. In jede Reagenzglas-Probe werden ca. 30 Lucilia-Larven (L1) eingesetzt. Nach 4 Tagen wird die Mortalitätsrate bestimmt. Die Verbindungen aus den Herstellungsbeispielen zeigen bei 250 ppm eine Wirkung von 100 %, wobei Verbindungen aus den Herstellungsbeispielen diese Wirkung auch noch bei der reduzierten Wirkstoffkonzentration von 100 ppm erzielen, wie beispielsweise die Verbindungen Nr. 1.10, 1.18, 1.26, 1.34, 1.39, 1.43, 1.46, 1.54, 1.58, 1.62, 1.82, 1.90 und 1.114.

For series [4], the system named is Aedes aegypti. Put plainly: Larvicidal action against Aedes aegypti (larvae in water). The settings on record: niedrigere Konzentrationen (below 3 ppm). The procedure:
Beispiel B.10: Larvizidwirkung gegen Aedes aegypti
Auf die Oberfläche von 150 ml Wasser, das sich in einem Behälter befindet, wird soviel einer 0,1 %igen acetonischen Lösung des Wirkstoffes pipettiert, dass Konzentrationen von wahlweise 12,5 ppm, 3,3 ppm und 1,6 ppm erhalten werden. Nach Verdunsten des Acetons wird der Behälter mit ca. 30-40 3 Tage alten Aedes-Larven beschickt. Nach 1, 2 und 5 Tagen wird die Mortalität geprüft.

Series [5] concerns Spodoptera littoralis. Nature of the series: Insecticidal stomach-poison action on Spodoptera littoralis (sprayed cotton plants). Particulars: niedrigere Konzentrationen (below 12,5 ppm); L1 larvae. The procedure: Beispiel B.6: Insektizide Frassgift-Wirkung bei Spodoptera littoralis
Eingetopfte Baumwollpflanzen im 5-Blatt-Stadium werden mit einer acetonisch/wässrigen Versuchslösung besprüht, die 3, 12,5 oder 50 ppm der zu prüfenden Verbindung enthält.
Nach dem Antrocknen des Belags werden die Pflanzen mit ca. 30 Larven (LI-Stadium) von Spodoptera littoralis besetzt. Pro Versuchsverbindung und pro Test-Spezies verwendet man zwei Pflanzen. Der Versuch wird bei ca. 24°C und 60 % relativer Luftfeuchtigkeit durchgeführt. Auswertungen und Zwischenauswertungen auf moribunde Tiere, Wachstum und Larven und Frassschäden erfolgen nach 24 Stunden, 48 Stunden und 72 Stunden.

Series [6] relates to OP-sensible Tetranychus urticae. Nature of the series: Action against plant-damaging acarids, OP-sensitive Tetranychus urticae (sprayed bean plants). The settings on record: niedrigere Konzentrationen (below 1,6 ppm); after seven days. The procedure:
Beispiel B.7: Wirkung gegen pflanzenschädigende Akariden OP-sensible Tetranychus urticae
Die Primärblätter von Bohnenpflanzen (Phaseolus vulgaris) werden 16 Stunden vor dem Versuch mit einem durch T. urticae infestierten, aus einer Massenzucht stammenden Blattstück belegt. […] Die Temperatur in der Gewächshauskabine beträgt ca. 25°C.
Nach sieben Tagen wird unter dem Binokular auf Prozentsatz mobiler Stadien (Adulte und Nymphen) und auf vorhandene Eier ausgewertet.

Series [7] has as its system Ll-Larven von Lucilia cuprina. Nature of the series: Action against L1 larvae of Lucilia cuprina (as B.2). Particulars: niedrigere Konzentrationen (below 100 ppm). The procedure:
as §1
Beispiel B.3: Wirkung gegen Ll-Larven von Lucilia cuprina
Der Test wird wie unter B.2 beschrieben durchgeführt, jedoch mit Larven von Lucilia cuprina. […] Bei manchen Verbindungen wird dieser Effekt bereits mit niedrigeren Konzentrationen erreicht, beispielsweise mit den Verbindungen Nr. 1.34, 1.90 und 1.114.

In the case of `C=COC(=O)O[C@H]1/C(C)=C/C[C@@H]2C[C@@H](C[C@]3(CC[C@H](C)[C@@H](C(C)C)O3)O2)OC(=O)[C@@H]2C=C(C)[C@@H](O)[C@H]3OC/C(=C\C=C\[C@@H]1C)[C@]32O` [1.39, 13ß-(Vinyloxycarbonyloxy)-milbemycin D], in series [1], the “Wirkung (Mortalität)” value worked out at 100%. In addition, the Abtötung in series [2] was 100%. Further, the mortality at 100 ppm in series [3] is 100%.
Take `CC[C@H]1O[C@]2(CC[C@@H]1C)C[C@@H]1C[C@@H](C/C=C(\C)[C@H](OC(=O)Oc3ccc(C(=O)OC)cc3)[C@@H](C)/C=C/C=C3\CO[C@@H]4[C@H](O)C(C)=C[C@@H](C(=O)O1)[C@]34O)O2` [1.62, 13ß-(4-Methoxycarbonylphenoxy)-carbonyloxy-milbemycin A4]: the “Abtötung sämtlicher Larven” value in series [4] is on record as “vollständige Abtötung”. For the same compound, in series [3], the mortality at 100 ppm came out at 100%.
Consider `CC[C@H]1O[C@]2(CC[C@@H]1C)C[C@@H]1C[C@@H](C/C=C(\C)[C@H](OC(=O)OCC(Cl)(Cl)Cl)[C@@H](C)/C=C/C=C3\CO[C@@H]4[C@H](O)C(C)=C[C@@H](C(=O)O1)[C@]34O)O2` [1.26, 13ß-[(2,2,2-Trichlorethoxy)-carbonyloxy]-milbemycin A4], for which the “Abtötung sämtlicher Larven” value in series [4] was “vollständige Abtötung”. Moreover, in series [5], the Abtötung entry is “vollständige Abtötung”. For the same compound, in series [3], the mortality at 100 ppm is 100%.
As for `CC[C@H]1O[C@]2(CC[C@@H]1C)C[C@@H]1C[C@@H](C/C=C(\C)[C@H](OC(=O)OC)[C@@H](C)/C=C/C=C3\CO[C@@H]4[C@H](O)C(C)=C[C@@H](C(=O)O1)[C@]34O)O2` [1.2, 13ß-(Methoxycarbonyloxy)-milbemycin A4], in series [1], the “Wirkung (Mortalität)” value came to 100%. The Abtötung in series [2] was 100%.
Consider “13β-(Cyclohexyloxycarbonyloxy)-milbemycin A4 [1.82]”, for which the Abtötung result in series [6] and in series [5] was “vollständige Abtötung” throughout. The “Abtötung sämtlicher Larven” value in series [4] is “vollständige Abtötung”. The “Wirkung (Mortalitätsrate)” value in series [3] turned out to be 100%.
As for `C=CCOC(=O)O[C@H]1/C(C)=C/C[C@@H]2C[C@@H](C[C@]3(CC[C@H](C)[C@@H](C(C)C)O3)O2)OC(=O)[C@@H]2C=C(C)[C@@H](O)[C@H]3OC/C(=C\C=C\[C@@H]1C)[C@]32O` [1.43, 13β-(Allyloxycarbonyloxy)-milbemycin D], in series [1], the “Wirkung (Mortalität)” value came out at 100%. In series [2], this compound had an Abtötung of 100%. Further, the mortality at 100 ppm in series [3] was 100%.
Consider `COC(=O)O[C@H]1/C(C)=C/C[C@@H]2C[C@@H](C[C@]3(CC[C@H](C)[C@@H](C(C)C)O3)O2)OC(=O)[C@@H]2C=C(C)[C@@H](O)[C@H]3OC/C(=C\C=C\[C@@H]1C)[C@]32O` [1.3, 13ß-(Methoxycarbonyloxy)-milbemycin D], for which the “Wirkung (Mortalität)” value in series [1] is given as 100%. For the same compound, the figures for the Abtötung entry in series [6], in series [2] and in series [5] were “vollständige Abtötung”, 100% and “vollständige Abtötung”, respectively.
As to `CC[C@H]1O[C@]2(CC[C@@H]1C)C[C@@H]1C[C@@H](C/C=C(\C)[C@H](OC(=O)OC(C)(C)C(Cl)(Cl)Cl)[C@@H](C)/C=C/C=C3\CO[C@@H]4[C@H](O)C(C)=C[C@@H](C(=O)O1)[C@]34O)O2` [1.34, 13ß-[(1,1-Dimethyl-2,2,2-trichlorethoxy)-carbonyloxy]-milbemycin A4], the results for the Abtötung result in series [6], in series [2] and in series [5] were “vollständige Abtötung”, 100% and “vollständige Abtötung”, respectively. The “Abtötung sämtlicher Larven” value in series [4] is on record as “vollständige Abtötung”. The “Vernichtung des Schädlings” value in series [7] is “vollständige Vernichtung”. Besides, the mortality at 100 ppm in series [3] came to 100%.
`CC[C@H]1O[C@]2(CC[C@@H]1C)C[C@@H]1C[C@@H](C/C=C(\C)[C@H](OC(=O)OCc3ccccc3)[C@@H](C)/C=C/C=C3\CO[C@@H]4[C@H](O)C(C)=C[C@@H](C(=O)O1)[C@]34O)O2` [1.46, 13β-Benzyloxycarbonyloxy-milbemycin A4]: the “Wirkung (Mortalität)” value in series [1] came out at 100%. Besides, the mortality at 100 ppm in series [3] worked out at 100%.
As to “13ß-(9-Fluorenyl-methoxy)-carbonyloxy-milbemycin A4 [1.114]”, the “Abtötung sämtlicher Larven” value in series [4] is recorded as “vollständige Abtötung”. Besides, the “Vernichtung des Schädlings” value in series [7] is listed as “vollständige Vernichtung”. In addition, the “Wirkung (Mortalitätsrate)” value in series [3] is 100%.
`CC[C@H]1O[C@]2(CC[C@@H]1C)C[C@@H]1C[C@@H](C/C=C(\C)[C@H](OC(=O)OC(C)C)[C@@H](C)/C=C/C=C3\CO[C@@H]4[C@H](O)C(C)=C[C@@H](C(=O)O1)[C@]34O)O2` [1.10, 13ß-Isopropyloxycarbonyloxy-milbemycin A4]: the “Wirkung (Mortalität)” value in series [1] is 100%. In addition, the Abtötung entry is “vollständige Abtötung” in series [6], 100% in series [2] and “vollständige Abtötung” in series [5]. The “Abtötung sämtlicher Larven” value in series [4] is given as “vollständige Abtötung”. Moreover, the mortality at 100 ppm in series [3] came out at 100%.
For `CC[C@H]1O[C@]2(CC[C@@H]1C)C[C@@H]1C[C@@H](C/C=C(\C)[C@H](OC(=O)Oc3ccc([N+](=O)[O-])cc3)[C@@H](C)/C=C/C=C3\CO[C@@H]4[C@H](O)C(C)=C[C@@H](C(=O)O1)[C@]34O)O2` [1.58, 13ß-(4-Nitrophenoxy)-carbonyloxy-milbemycin A4], the “Abtötung sämtlicher Larven” value in series [4] is “vollständige Abtötung”. In series [3], the mortality at 100 ppm was 100%.
On to `CC[C@H]1O[C@]2(CC[C@@H]1C)C[C@@H]1C[C@@H](C/C=C(\C)[C@H](OC(=O)OCCBr)[C@@H](C)/C=C/C=C3\CO[C@@H]4[C@H](O)C(C)=C[C@@H](C(=O)O1)[C@]34O)O2` [1.18, 13ß-(2-Bromäthoxy)-carbonyloxy-milbemycin A4], for which, in series [1], the “Wirkung (Mortalität)” value was 100%. Also, the mortality at 100 ppm in series [3] stood at 100%.
Take `CC[C@H]1O[C@]2(CC[C@@H]1C)C[C@@H]1C[C@@H](C/C=C(\C)[C@H](OC(=O)Oc3ccccc3)[C@@H](C)/C=C/C=C3\CO[C@@H]4[C@H](O)C(C)=C[C@@H](C(=O)O1)[C@]34O)O2` [1.54, 13ß-Phenoxycarbonyloxy-milbemycin A4]: the “Abtötung sämtlicher Larven” value in series [4] was “vollständige Abtötung”. Also, the Abtötung in series [2] is 100%; in series [5] it was “vollständige Abtötung”. Moreover, the mortality at 100 ppm in series [3] worked out at 100%.
For `CC[C@H]1O[C@]2(CC[C@@H]1C)C[C@@H]1C[C@@H](C/C=C(\C)[C@H](OC(=O)OCC(Cl)(Cl)C(F)(F)F)[C@@H](C)/C=C/C=C3\CO[C@@H]4[C@H](O)C(C)=C[C@@H](C(=O)O1)[C@]34O)O2` [1.98, 13ß-(3,3,3-Trifluor-2,2-dichlor-propyloxy)-carbonyloxy-milbemycin A4], the Abtötung entry in series [6] and in series [5] was “vollständige Abtötung” in each case. The “Abtötung sämtlicher Larven” value in series [4] is “vollständige Abtötung”.
